Source: US10202361B2, “Pyridazinones as herbicides” (E I DU PONT DE NEMOURS AND COMPANY, priority 2014, dated 2019)
Where two headings read alike, the source gives them in different places.

Legend:
Type in all cases: in vivo
[1] = tested on: rice (Oryza sativa); assay: Test B flooded paddy test; conditions: Oryza sativa, 312 h; Flood, 125 g ai/ha; scale of 0 to 100, 0 is no effect, 100 is complete control; 13 to 15 d; read-out: Plant response rating, Rice
Summary of the method: (§1)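 Plants were raised to the 2-leaf stage, then pots were flooded to 3 cm above the soil and the test compound was applied directly into the paddy water, with that depth held throughout. After 13 to 15 d in a greenhouse, injury was rated visually against untreated controls on a 0–100 scale (0 = no effect, 100 = complete control).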

[2] = tested on: sedge, umbrella (small-flower umbrella sedge, Cyperus difformis); assay: Test B flooded paddy test; conditions: Cyperus difformis, 312 h; Flood, 125 g ai/ha; scale of 0 to 100, 0 is no effect, 100 is complete control; 13 to 15 d; read-out: Plant response rating, Sedge, Umbrella
Summary of the method: as §1

[3] = tested on: barnyardgrass (Echinochloa crus-galli); assay: Test B flooded paddy test; conditions: Echinochloa crus-galli, 312 h; Flood, 125 g ai/ha; scale of 0 to 100, 0 is no effect, 100 is complete control; 13 to 15 d; read-out: Plant response rating, Barnyardgrass
Summary of the method: as §1

[4] = tested on: ducksalad (Heteranthera limosa); assay: Test B flooded paddy test; conditions: Heteranthera limosa, 312 h; Flood, 125 g ai/ha; scale of 0 to 100, 0 is no effect, 100 is complete control; 13 to 15 d; read-out: Plant response rating, Ducksalad
Summary of the method: as §1

[5] = tested on: chickweed (common chickweed, Stellaria media); assay: Test C postemergence greenhouse herbicide test
Description: At the same time, plants selected from these crop and weed species and also barley (winter barley, Hordeum vulgare), canarygrass (Phalaris minor), windgrass (Apera spica-venti), deadnettle (henbit deadnettle, Lamium amplexicaule), and chickweed (common chickweed, Stellaria media) were planted in pots containing Redi-Earth® planting medium (Scotts Company, 14111 Scottslawn Road, Marysville, Ohio 43041) comprising spaghnum peat moss, vermiculite, wetting agent and starter nutrients and treated with postemergence applications of test chemicals formulated in the same manner. Plants ranged in height from 2 to 18 cm (1- to 4-leaf stage) for postemergence treatments. Treated plants and controls were maintained in a greenhouse for 13 to 15 d, after which time all species were compared to controls and visually evaluated. Plant response ratings, summarized in Table C, are based on a scale of 0 to 100 where 0 is no effect and 100 is complete control. A dash (-) response means no test result.

[6] = tested on: crabgrass, Large (large crabgrass, Digitaria sanguinalis); assay: Test C pre-/postemergence greenhouse herbicide test; conditions: Digitaria sanguinalis, Crabgrass, Large, read-out: Plant response rating; for pest or weed control at 31 g/ha: 31 g ai/ha; for pest or weed control at 62 g/ha: 62 g ai/ha; for pest or weed control at 125 g/ha: 125 g ai/ha; for pest or weed control at 250 g/ha: 250 g ai/ha
Summary of the method: (§2)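 Seeds sown in loam soil–sand blend were treated preemergence; plants at 2 to 18 cm (1- to 4-leaf stage) in peat-based medium were treated postemergence. Test chemicals were formulated in a non-phytotoxic solvent mixture with surfactant. After 13 to 15 d in greenhouse, injury was rated visually versus controls, 0 (no effect) to 100 (complete control).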

[7] = tested on: oilseed rape (Brassica napus); assay: as above; conditions: Oilseed Rape
Summary of the method: as §2

[8] = tested on: blackgrass (Alopecurus myosuroides); assay: as above; conditions: Alopecurus myosuroides, Blackgrass, read-out: Plant response rating; for pest or weed control at 31 g/ha: 31 g ai/ha; for pest or weed control at 62 g/ha: 62 g ai/ha; for pest or weed control at 125 g/ha: 125 g ai/ha; for pest or weed control at 250 g/ha: 250 g ai/ha
Summary of the method: as §2

[9] = tested on: foxtail, giant (giant foxtail, Setaria faberii); assay: as above; conditions: Setaria faberi, Foxtail, Giant, read-out: Plant response rating; for pest or weed control at 31 g/ha: 31 g ai/ha; for pest or weed control at 62 g/ha: 62 g ai/ha; for pest or weed control at 125 g/ha: 125 g ai/ha; for pest or weed control at 250 g/ha: 250 g ai/ha
Summary of the method: as §2

[10] = tested on: velvetleaf (Abutilon theophrasti); assay: as above; conditions: Abutilon theophrasti, Velvetleaf, read-out: Plant response rating; for pest or weed control at 31 g/ha: 31 g ai/ha; for pest or weed control at 62 g/ha: 62 g ai/ha; for pest or weed control at 125 g/ha: 125 g ai/ha; for pest or weed control at 250 g/ha: 250 g ai/ha
Summary of the method: as §2

[11] = tested on: ryegrass, Italian (Italian ryegrass, Lolium multiflorum); assay: as above; conditions: Lolium multiflorum, Ryegrass, Italian, read-out: Plant response rating; for pest or weed control at 31 g/ha: 31 g ai/ha; for pest or weed control at 62 g/ha: 62 g ai/ha; for pest or weed control at 125 g/ha: 125 g ai/ha; for pest or weed control at 250 g/ha: 250 g ai/ha
Summary of the method: as §2

Structure (SMILES): Cc1cc(=O)n(-c2ccc(C(F)(F)F)cc2)nc1Cc1ccnc(C(F)(F)F)c1 [Compound 2, 5-methyl-2-[4-(trifluoromethyl)phenyl]-6-[[2-(trifluoromethyl)-4-pyridinyl]methyl]-3(2H)-pyridazinone]
- plant injury at 125 g/ha [1]: 0%
- pest or weed control at 125 g/ha [2]: 80%
- pest or weed control at 125 g/ha [3]: 0%
- pest or weed control at 125 g/ha [4]: 10%
- Plant response rating ([5]; 31 g ai/ha): 60
- Plant response rating ([5]; 62 g ai/ha): 70
- Plant response rating ([5]; 125 g ai/ha): 90
- Plant response rating ([5]; 250 g ai/ha): 90
- pest or weed control at 31 g/ha ([6]; post-emergence, Postemergence): 5%
- pest or weed control at 62 g/ha ([6]; post-emergence, Postemergence): 5%
- pest or weed control at 125 g/ha ([6]; post-emergence, Postemergence): 15%
- pest or weed control at 250 g/ha ([6]; post-emergence, Postemergence): 35%
- pest or weed control at 31 g/ha ([6]; pre-emergence, Preemergence): 75%
- pest or weed control at 62 g/ha ([6]; pre-emergence, Preemergence): 80%
- pest or weed control at 125 g/ha ([6]; pre-emergence, Preemergence): 100%
- pest or weed control at 250 g/ha ([6]; pre-emergence, Preemergence): 100%
- Plant response rating ([7]; Postemergence, 31 g ai/ha): 5
- Plant response rating ([7]; Postemergence, 62 g ai/ha): 30
- Plant response rating ([7]; Postemergence, 125 g ai/ha): 45
- Plant response rating ([7]; Postemergence, 250 g ai/ha): 50
- Plant response rating ([7]; Preemergence, 31 g ai/ha): 100
- Plant response rating ([7]; Preemergence, 62 g ai/ha): 100
- Plant response rating ([7]; Preemergence, 125 g ai/ha): 100
- Plant response rating ([7]; Preemergence, 250 g ai/ha): 100
- pest or weed control at 31 g/ha ([8]; post-emergence, Postemergence): 5%
- pest or weed control at 62 g/ha ([8]; post-emergence, Postemergence): 5%
- pest or weed control at 125 g/ha ([8]; post-emergence, Postemergence): 10%
- pest or weed control at 250 g/ha ([8]; post-emergence, Postemergence): 15%
- pest or weed control at 31 g/ha ([8]; pre-emergence, Preemergence): 10%
- pest or weed control at 62 g/ha ([8]; pre-emergence, Preemergence): 45%
- pest or weed control at 125 g/ha ([8]; pre-emergence, Preemergence): 90%
- pest or weed control at 250 g/ha ([8]; pre-emergence, Preemergence): 90%
- pest or weed control at 31 g/ha ([9]; post-emergence, Postemergence): 10%
- pest or weed control at 62 g/ha ([9]; post-emergence, Postemergence): 10%
- pest or weed control at 125 g/ha ([9]; post-emergence, Postemergence): 25%
- pest or weed control at 250 g/ha ([9]; post-emergence, Postemergence): 25%
- pest or weed control at 31 g/ha ([9]; pre-emergence, Preemergence): 45%
- pest or weed control at 62 g/ha ([9]; pre-emergence, Preemergence): 98%
- pest or weed control at 125 g/ha ([9]; pre-emergence, Preemergence): 100%
- pest or weed control at 250 g/ha ([9]; pre-emergence, Preemergence): 100%
- pest or weed control at 31 g/ha ([10]; post-emergence, Postemergence): 25%
- pest or weed control at 62 g/ha ([10]; post-emergence, Postemergence): 30%
- pest or weed control at 125 g/ha ([10]; post-emergence, Postemergence): 30%
- pest or weed control at 250 g/ha ([10]; post-emergence, Postemergence): 35%
- pest or weed control at 62 g/ha ([10]; pre-emergence, Preemergence): 40%
- pest or weed control at 125 g/ha ([10]; pre-emergence, Preemergence): 85%
- pest or weed control at 250 g/ha ([10]; pre-emergence, Preemergence): 85%
- pest or weed control at 31 g/ha ([11]; post-emergence, Postemergence): 5%
- pest or weed control at 62 g/ha ([11]; post-emergence, Postemergence): 5%
- pest or weed control at 125 g/ha ([11]; post-emergence, Postemergence): 5%
- pest or weed control at 250 g/ha ([11]; post-emergence, Postemergence): 5%
- pest or weed control at 31 g/ha ([11]; pre-emergence, Preemergence): 5%
- pest or weed control at 62 g/ha ([11]; pre-emergence, Preemergence): 15%
- pest or weed control at 125 g/ha ([11]; pre-emergence, Preemergence): 65%
- pest or weed control at 250 g/ha ([11]; pre-emergence, Preemergence): 85%

Structure (SMILES): Cc1cc(Oc2ccnc(C(F)(F)F)c2)nn(-c2ccc(C(F)(F)F)cc2)c1=O [Compound 6, 4-methyl-2-[4-(trifluoromethyl)phenyl]-6-[[2-(trifluoromethyl)-4-pyridinyl]oxy]-3(2H)-pyridazinone]
- plant injury at 125 g/ha [1]: 0%
- pest or weed control at 125 g/ha [2]: 0%
- pest or weed control at 125 g/ha [3]: 0%
- pest or weed control at 125 g/ha [4]: 0%
- Plant response rating ([5]; 31 g ai/ha): 80
- Plant response rating ([5]; 62 g ai/ha): 95
- Plant response rating ([5]; 125 g ai/ha): 95
- Plant response rating ([5]; 250 g ai/ha): 98
- pest or weed control at 31 g/ha ([6]; post-emergence, Postemergence): 10%
- pest or weed control at 62 g/ha ([6]; post-emergence, Postemergence): 20%
- pest or weed control at 125 g/ha ([6]; post-emergence, Postemergence): 30%
- pest or weed control at 250 g/ha ([6]; post-emergence, Postemergence): 35%
- Plant response rating ([7]; Postemergence, 31 g ai/ha): 85
- Plant response rating ([7]; Postemergence, 62 g ai/ha): 85
- Plant response rating ([7]; Postemergence, 125 g ai/ha): 95
- Plant response rating ([7]; Postemergence, 250 g ai/ha): 95
- pest or weed control at 31 g/ha ([8]; post-emergence, Postemergence): 30%
- pest or weed control at 62 g/ha ([8]; post-emergence, Postemergence): 35%
- pest or weed control at 125 g/ha ([8]; post-emergence, Postemergence): 35%
- pest or weed control at 250 g/ha ([8]; post-emergence, Postemergence): 50%
- pest or weed control at 31 g/ha ([9]; post-emergence, Postemergence): 25%
- pest or weed control at 62 g/ha ([9]; post-emergence, Postemergence): 35%
- pest or weed control at 125 g/ha ([9]; post-emergence, Postemergence): 65%
- pest or weed control at 250 g/ha ([9]; post-emergence, Postemergence): 85%
- pest or weed control at 31 g/ha ([10]; post-emergence, Postemergence): 45%
- pest or weed control at 62 g/ha ([10]; post-emergence, Postemergence): 45%
- pest or weed control at 125 g/ha ([10]; post-emergence, Postemergence): 55%
- pest or weed control at 250 g/ha ([10]; post-emergence, Postemergence): 95%
- pest or weed control at 31 g/ha ([11]; post-emergence, Postemergence): 5%
- pest or weed control at 62 g/ha ([11]; post-emergence, Postemergence): 10%
- pest or weed control at 125 g/ha ([11]; post-emergence, Postemergence): 15%
- pest or weed control at 250 g/ha ([11]; post-emergence, Postemergence): 35%
